Assay results from US20020169123A1, “Regulating apoptosis in TRAIL-resistant cancer cells, while protecting normal, non-cancerous cells” (THE TRUSTEES OF THE UNIVERSITY OF PENNSYLVANIA, priority 2001, published 2002).

Assays:
[1] = tested on: TRAIL-resistant HCE4 cell line; experiment: time course western blot of caspase activation and PARP cleavage; format: cell-based, human; details: only in CHX-pretreated HCE4 cells; 6 hours CHX pre-incubation
Description: (§1) Western blot analysis was carried out as previously described (Meng et al., Clin. Cancer Res. 4:251-259 (1998)). Blotted membranes were immunostained with anti-DR4 (1:500; Pharmingen), anti-DR5 (1:500; IMGENEX, San Diego, Calif.), anti-DcR1 (1:500; Pharmingen), anti-DcR2 (1:500; Pharmingen), anti-FADD (Clone IF7, 1:2000; Upstate Biotechnology, Lake Placid, N.Y.), anti-caspase 8 (Clone 5F7, 1:1000; Upstate Biotechnology), anti-FLIP (Clone Dave-2, 1:1000; Alexis Biochemicals, San Diego, Calif.), anti-Bid (1:500; Pharmingen), anti-Bax (1:500, Pharmingen), anti Bcl-2 (Bcl-2/100, 1:500; Pharmingen), anti-Bcl-xL (1:500; Pharmingen), anti-caspase 3 (E-8, 1:200; Santa Cruz, Santa Cruz, Calif.), anti-PARP (1:2000; Roche Diagnostics GmbH, Mannheim, Germany), anti-TRAIL (1:500; PeproTech Inc., Rocky Hill, N.J.), or anti-actin (I-19, 1:200; Santa Cruz).
A time course experiment was performed using the TRAIL-resistant HCE4 cell line. After 6 hours of pre-incubation in the presence or absence of CHX, the cells were exposed to TRAIL, then lysates were prepared and harvested at time points every 30 minutes after the addition of TRAIL, up to 4 hrs by adding 1× SDS loading buffer. The timed lysates were subjected to 10 or 12% SDS-PAGE, and then immunoblotted and stained with the indicated antibodies (FIG. 3). […]

HCE4 cells = experiment: DISC IP analysis, recruitment of caspase 8 into DISC; format: cell-based, human; details: CHX-pre-treated vs control
Description: (§2) To perform the DISC analysis, cells were grown, harvested and re-suspended in 2 mL of DMEM (1.5×10^7 cells/mL). TRAIL (500 ng/mL final concentration) and anti-6× His antibody (2.5 μg/mL final concentration) were pre-mixed for 10 minutes on ice, then added to the re-suspended cells. The cells were treated with TRAIL for 20 minutes in a 37° C. water bath with intermittent agitation. TRAIL treatment was stopped by adding 5 mL of ice-cold PBS, followed by immediate centrifugation. […]
(§3) To the cleared lysate, 30 μL of protein A/G plus agarose beads (Santa Cruz) were added and incubated overnight in a cold room with continuous rocking. […] After centrifugation at the same condition, the precipitates were re-suspended in 1× SDS loading buffer and analyzed by 12% SDS-PAGE and western immunostaining.
(§4) In the control used to verify the DISC without TRAIL stimulation, the same amounts of TRAIL and antibody were added to the lysate after the cells were lysed with IP lysis buffer. Equal amounts of total cell lysates were also analyzed as an expression control. […]
(§5) FIGS. 3A and 3B depict an immunostained western blot showing the sensitization of TRAIL-resistant HCE4 cells to TRAIL resulting from CHX pre-treatment. […] Actin levels were measured as a control standard.

TE9 cells = experiment: as above; format: cell-based, human; details: CHX-pre-treated vs control
Description: as §2, §3, §4, §5

[2] = tested on: esophageal cancer cell lines; experiment: active-caspase 3 assay, TRAIL cytotoxicity on esophageal cancer cell lines; format: cell-based, human
Description: To assess TRAIL cytotoxicity on esophageal cancer cells, the active-caspase 3 assay was used. […] After 16 hours of the TRAIL treatment, the cells were harvested and the active-caspase 3 assay was performed as described in the Experimental Procedures above. In the case of CHX treatment, the cells were pre-treated with CHX (10 μg/mL final concentration) for 6 hours before the addition of TRAIL.
The protein synthesis inhibitor, cycloheximide (“CHX”), has been widely used with apoptosis-inducing ligands, such as FAS/FASL, TNF-α, or TRAIL, to induce cell death effectively. […] This is because previous observers have reported that over-expression of c-FLIP can interrupt the recruitment of caspase 8 into DISC, thereby preventing down stream activation of the caspase cascade (Wajant et al., J. Biol. Chem. 275:24357-24366 (2000)). It has also been reported that CHX might sensitize the cells to TRAIL by inhibiting a de novo synthesis of c-FLIP, thereby increasing the recruitment of caspase 8 into DISC (Fulda et al., Cancer Res. 60:3947-3956 (2000)), followed by activation of downstream apoptotic signaling cascade.

[3] = tested on: TRAIL-resistant HCE4, TE3, and TE5 cells; experiment: active-caspase 3 assay, adriamycin plus TRAIL; format: cell-based, human; details: HCE4, TE3, TE5; 0.5 μM adriamycin 16 hours, then TRAIL 4 hours; no inhibitor
Description: Cells were treated with TRAIL (50 ng/mL final concentration) and 1 μg/mL of anti-6× His (N-terrninal histidine antibody) for 4 hours or for 16 hours. The caspase inhibitor was used at a final concentration of 20 μM, and was added 2 hours prior to the addition of TRAIL. When the cells were treated with both cycloheximide (CHX) and TRAIL, CHX (10 μg/mL final concentration) was added 6 hours before the addition of TRAIL. In the case of adriamycin, cells were pre-treated with adriamycin (0.5 μM final concentration) for 16 hours before the addition of TRAIL.
(§6) For detecting apoptosis mediated by TRAIL, an active-caspase 3 assay was performed using Cytofix/Cytoperm kit (Pharmingen, San Diego, Calif.), as previously described (Kim et al., Int. J. Oncol. 18:241-247 (2001)). Briefly, using standard techniques, 5×10^5 cells were seeded into a 6 well plate, after which, the cells were treated with TRAIL cross-linked with anti-6× His antibody. […] After washing, the cells were probed with 0.125 μg/μl of Phycoerythrin (PE)-conjugated goat anti-rabbit secondary antibody (Ab) (CALTAG Laboratories, Burlingame, Calif.) for 20 minutes in the dark. The intensity of PE was analyzed by flow cytometry using a Beckman-Coulter Epics Elite analyzer.
Accordingly, adriamycin was tested to determine whether its combination with TRAIL could induce synergistic cell killing in TRAIL-resistant esophageal cancer cells. TRAIL-resistant HCE4, TE3, and TE5 cells were pre-treated with 0.5 μM adriamycin for 16 hours, followed by incubation for 4 hours in the presence of TRAIL. z-LEHD-FMK (20 μM final concentration) was added 2 hours before the addition of TRAIL. An active-caspase 3 assay was used to determine whether apoptosis occurred.
Next, z-LEHD-FMK was tested in the HCE4, TE3 and TE5 cells to determine the protective effect of z-LEHD-FMK, if any, on the synergistic cell death driven by the combination of adriamycin with TRAIL.

[4] = tested on: EPC2 normal esophageal epithelial cells; details: EPC2 cells
Description: Normal human primary epithelial cells (EPC2, provided by Dr. Anil Rustgi, University of Pennsylvania) and primary human foreskin keratinocytes (HFK, provided by Dr. John C. Ansel, Emory University), were grown in Keratinocyte-SFM medium (Gibco BRL, Rockville, Md.) containing bovine pituitary extract (40 μg/mL) and epidermal growth factor (1 ng/mL). The primary epithelial cells were used at passage 4 or 5.
The N-terminal histidine (His) tagged recombinant human TRAIL (rhTRAIL, Thr-95 to Gly-281) was obtained from R&D Systems (Minneapolis, Minn.). A mouse monoclonal anti-6× His antibody (R&D Systems) was used for cross-linking the rhTRAIL. […] Cells were treated with TRAIL (50 ng/mL final concentration) and 1 μg/mL of anti-6× His (N-terrninal histidine antibody) for 4 hours or for 16 hours. The caspase inhibitor was used at a final concentration of 20 μM, and was added 2 hours prior to the addition of TRAIL. […] In the case of adriamycin, cells were pre-treated with adriamycin (0.5 μM final concentration) for 16 hours before the addition of TRAIL.
as §6

EPC2 = experiment: mitochondrial transmembrane potential change; format: cell-based, human; details: data not shown
HCE4, TE3 and TE5 cells [5] = experiment: Bax translocation, cell fractionation and western blot; format: cell-based, human; details: cytoplasmic and heavy membrane fractions, western blot
Description: as §1
To prepare cytoplasmic fraction and mitochondria-rich heavy membrane fraction, cells were harvested, washed, and then re-suspended in RSB100 (10 mM Tris-HCl, pH 7.4, 2.5 mM MgCl2, 100 mM NaCl) containing 35 μg/mL digitonin (Calbiochem, San Diego, Calif.), and 1× complete protease inhibitor cocktail (Roche Diagnostics). After incubation on ice for 5 minutes, the cells were disrupted by passage through a 25G needle. […] Protein quantity was measured using Bio-Rad protein assay reagent (Bio-Rad, Hercules, Calif.). […]

HCE4, TE3 and TE5 cells [6] = experiment: mitochondrial transmembrane potential change, DiOC6 flow cytometry; format: cell-based, human; details: 0.5 μM adriamycin 16 hours; 100 nM DiOC6
Description: To detect any change of Δψm after treating cells with adriamycin, 3,3′-dihexyloxacarbocyanine iodide (DiOC6 (Pan et al., 1997)) were used. Briefly, 5×10^5 cells/well were seeded into a 6 well plate. After treatment with adriamycin, the cells were harvested, washed and re-suspended in complete media containing 100 nM DiOC6 (Pan et al., 1997) followed by 30 minutes incubation in a 37° C. water bath.
In addition to determine the potential mitochondrial membrane (Δψm) change after 16 hours of adriamycin (0.5 μM) pretreatment, the HCE4, TE3 and TE5 cells were incubated in the presence of 100 nM DiOC6 (Pan et al., 1997).

HFK cells = experiment: active-caspase 3 assay on foreskin keratinocytes; format: cell-based, human; details: increasing concentrations of TRAIL, 4 hours
Source text: Experiments were done in duplicate (mean value±SD).

[7] = tested on: all cells, including cancer cells; experiment: protection from the killing effect of TRAIL by caspase inhibitors; format: cell-based; details: stated without experimental detail
[8] = tested on: TRAIL-sensitive SW480 colon cancer cells; experiment: apoptosis-inducing activity of adenovirus-expressed TRAIL; format: cell-based, human; details: z-VAD-FMK 20 μM added 1 hour after onset of virus infection
Source text: To make an adenovirus expressing extra-cellular portion of TRAIL (amino acids (Aa) 95 to 281), pAdTRACK/CMV and pAdEasy systems were used as previously described (He et al., Proc. Natl. Acad. Sci. USA 95:2509-2514 (1998)). In short, the extra-cellular portion of TRAIL was amplified by PCR (polymerase chain reaction). The amplified fragment was fused directly to the signal peptide of a mouse Ig κ chain, which is secreted into the media from the cells. Then, an isoleucine zipper (ILZ) fragment was inserted between the signal peptide and TRAIL to induce self-trimerization (Harbury et al., Science 262:1401-1407 (1993)). The final resulting construct was cloned into pAdTRACK/CMV, and then a recombinant plasmid was generated in BJ5183 E. coli by co-transforming PmeI-digested TRAIL-cloned pAdTRACK/CMV and pAdEASY.
The recombinant plasmid was digested with PacI, and was used for transfection into […] 293 cells using Superfect (QIAGEN, Valencia, Calif.). Approximately five (5) days after transfection, when comet-like patches of the green cells appeared, the cells were harvested. The viruses were amplified and purified as previously described (El-Deiry et al., Cell 75:817-825 (1993)). The infectivity of the viruses was checked by the observation of green fluorescence using a fluorescence microscope. […]

Molecule: C[C@@H]1C[C@@H]([C@H](O)CC2CC(=O)NC(=O)C2)C(=O)[C@@H](C)C1 [CHX, cycloheximide]
- onset of activation of caspase 8, Bid, caspase 9 and cleavage of PARP after TRAIL treatment [1]: approximately 1 hour
- amount of caspase 8 in the DISC after CHX pre-treatment (HCE4 cells): slight decrease
- amount of caspase 8 recruited into DISC after CHX pre-treatment (TE9 cells): no increase
- sensitization to TRAIL by CHX pre-treatment ([2]; all cancer cell lines, CHX 10 μg/mL for 6 hours before TRAIL): became sensitized to TRAIL

Molecule: COc1cccc2c1C(=O)c1c(O)c3c(c(O)c1C2=O)C[C@@](O)(C(=O)CO)C[C@@H]3O[C@H]1C[C@H](N)[C@H](O)[C@H](C)O1 [adriamycin, doxorubicin]
- cell killing by combination of adriamycin and TRAIL [3]: the effect was synergistic
- cell killing by combination of TRAIL and adriamycin ([4]; no inhibitor): synergistically killed
- drop of Δψm after adriamycin (EPC2): did not induce drop of Δψm
- Bax translocation from the cytosol to the mitochondria after adriamycin treatment (HCE4, TE3 and TE5 cells [5]): only in the HCE4 cells
- drop of Δψm after adriamycin treatment (HCE4, TE3 and TE5 cells [6]): a drop of Δψm was observed only in the HCE4 cells

Molecule: TRAIL: N-terminal histidine tagged recombinant human TRAIL (Thr-95 to Gly-281) from R&D Systems, cross-linked with anti-6x His antibody
- TRAIL cytotoxicity (active-caspase 3) ([4]; TRAIL 5, 10, 25 or 50 ng/mL, 4 hours): showed cytotoxicity in a dose dependent manner
- TRAIL cytotoxicity (active-caspase 3) (HFK cells): not affected
- TRAIL sensitivity (more than 30% of the cells active-caspase 3 positive) ([2]; TE2, TE9 and TE12 cell lines, TRAIL cross-linked with anti-6x His antibody, 16 hours): sensitive to TRAIL

Molecule: z-VAD-FMK
- protection from the killing effect of TRAIL [7]: protect all cells, including cancer cells, from the killing effect of TRAIL
- cleavage of caspase 3 and PARP in Ad-ILZ-TR infected cells with inhibitor [8]: no cleavage was observed
